Assay results from patent US9011820B2, “Screening tool for antiviral agents” (Saint Louis University, priority 2007, dated 2015).
Read-outs that look alike come from different tables or passages of the source.

Legend:
HaK tumors = assay type: in vivo, hamsters; conditions: CP twice weekly
Method: In an illustrative example, a tumor experiment in hamsters immunosuppressed with cyclophosphamide (CP) was conducted. Hamsters with very large (about 1.1 ml mean) established tumors (formed by the hamster renal cancer cell line named HaK) were treated with CP on day 1, then starting on day 4 the tumors were injected with VRX-007, Ad5, or buffer. CP was administered twice weekly throughout the study. […] Established large, about 1.1 ml, subcutaneous HaK tumors were injected intratumorally (6 injections, 1×10^10 PFU each) with VRX-007, wild-type Ad5, or vehicle (saline only). For each of these treatments, one group was immunosuppressed with CP and one group remained immunocompetent. Tumor volumes were measured with digital calipers twice per week. […] The tumors are from the 42 day time point.

Ad5 [1] = experiment: HDP-CDV in Ad5-infected immunosuppressed mice; assay type: in vivo; conditions: daily 2.5 mg/kg oral gavage
Method: Immunocompetent mice and mice immunosuppressed with CP were injected intravenously with 1.5×10^11 vp/kg of Ad5 or AdCMVpA, a replication defective adenovirus. Half of the animals in each group were treated via oral gavage with daily doses of 2.5 mg/kg of HDP-CDV, starting a day before virus injection. At the indicated times, mice were sacrificed and infectious virus titers in the liver were determined.

Ad5 [2] = experiment: HDP-CDV in Ad5-infected normal and CP-immunosuppressed Syrian hamsters; assay type: in vivo; conditions: 2.5 mg/kg oral gavage daily for 6 days, Days 3 and 6
Method: FIGS. 12A-12D are graphical representations illustrating HDP-CDV decreasing adenovirus induced liver toxicity and viral load.
Syrian hamsters (females, average weight 98 g) were immunosuppressed with twice weekly injections of cyclophosphamide (starting on Day −6; 140 mg/kg i.p. for the first dose, then 100 mg/kg). On Day 0, the animals were injected intravenously (into the jugular vein) with 1.9×10^12 vp/kg (ca. 3×10^10 PFU/animal) of Ad5 or AdCMVpA, and half of them were treated with HDPCDV (2.5 mg/kg via oral gavage daily for 6 days, starting on Day −1). On Days 3 and 6, hamsters were sacrificed and their sera were analyzed for transaminases (panel A=ALT; panel B=AST) and bilirubin (panel C). Infectious virus titers in the liver were determined, by TCID50 assays; the dashed line in the graph marks the threshold of quantifiability, horizontal lines represent group means, n-4, except for clinical chemistry for the Ad5 CP group on Day 6 (n=2); the error bars represent standard deviation.

[3] = system: Ad serotypes from Species A, B, C, D, E, and F in HEp-2 cells; conditions: cited from earlier work
Ad5 [4] = conditions: cotton rat; cited from earlier work
VRX-007 = experiment: Cidofovir inhibition of VRX-007 replication in A549 cells (crystal violet staining); assay type: cell-based, human adenovirus; conditions: 10 or 0.1 PFU/cell, stained seven days post infection
Method: A549 cells were mock-infected or infected with 10 or 0.1 plaque-forming units (PFU)/cell of VRX-007. Concomitantly, cidofovir was added to the medium at the indicated concentrations. The cells were stained with crystal violet dye at seven days post infection. Cidofovir has shown some efficacy in the rabbit and cotton rat models of ocular models of Ad5 infection.

Ad ocular infections = conditions: large multi-center trial, humans, cited from earlier work
[5] = system: Ad serotypes 1, 2, 5, and 8; conditions: cited from earlier work
Ad = conditions: cited from earlier work
[6] = in vivo; cited from earlier work
Ad5 [7] = conditions: rabbit; cited from earlier work
[8] = prospective study, eight pediatric stem cell transplant patients

For O=P1(N(CCCl)CCCl)NCCCO1 (stereo not shown) [CP, cyclophosphamide], the “growth of buffer-injected tumors” value (HaK tumors) was “did not affect growth”, the “total white blood cell (WBC) count” value (CP twice weekly) was “dropped to very low levels by day 12” and the “hemoglobin level (average)” value (CP-treated hamsters, end of experiment (42 days), 15.95 g/dl at the start) was 6.95 g/dL. The “red blood cells (RBC)” value (CP-treated hamsters, end of experiment, 8.39×10^6/mm^3 at the start) was 3.96×10^6 mm^3.
For CCCCCCCCCCCCCCCCOCCCOP(=O)(O)CO[C@H](CO)Cn1ccc(N)nc1=O [HDP-CDV, Hexadecyloxypropyl-cidofovir], the “replication of Ad5 (infectious virus titers in the liver)” value (Ad5 [1]) was “suppressing the replication”, the “adenoviral loads (infectious virus titers in the liver, TCID50)” value (Ad5 [2]) was “effectively and significantly reduces” and the “liver toxicity (ALT, AST, bilirubin)” value (Ad5 [2]) was “effectively and significantly reduces liver toxicity”.
For Nc1ccn(C[C@@H](CO)OCP(=O)(O)O)c(=O)n1 [cidofovir, (S)-9-[3-hydroxy-2-(phosphonomethyloxy)propyl] cytosine], the “inhibition of Ad replication by species” value [3] is listed as “inhibited replication in HEp-2 cells of serotypes from Species A, B, D, E, and F”, the “efficacy in ocular model of Ad5 infection” value (Ad5 [4]) is listed as “some efficacy” and the “inhibition of replication of VRX-007” value (VRX-007) is listed as “inhibits the replication”. The “efficacy against Ad ocular infections” value (Ad ocular infections) was “Significant efficacy”, the efficacy/toxicity ratio (Ad ocular infections; trial discontinued) was “narrow efficacy/toxicity ratio” and the “inhibition of Ad replication in cell culture” value [5] was “potent, nontoxic inhibitor”. For the same molecule, the “toxicity of systemic use” value (Ad; accumulation of the drug in renal proximal tubules) was “nephrotoxicity”, the “efficacy against Ad-associated hemorrhagic cystitis and renal dysfunction” value (Ad; bone marrow transplant patients) was “effective” and the “resolution of Ad infection in case reports” value (Ad; disseminated Ad in pediatric liver transplant patient, Ad7 in B cell lymphoma adult patient with meningoencephalitis) was “seemed to resolve”. For the same molecule, the “efficacy against Ad” value (Ad; patients immunosuppressed because of stem cell and bone marrow transplants) was “some efficacy”, the dose-limiting nephrotoxicity (Ad; [8]) was “without dose-limiting nephrotoxicity” and the “suppression of Ad” value (Ad; [8]) was “seemed to provide long term suppression of Ad”. The oral bioavailability [6] was “poor oral bioavailability” and the “efficacy in ocular model of Ad5 infection” value (Ad5 [7]) was “some efficacy”.
For NC(=O)c1ncn([C@@H]2O[C@H](CO)[C@@H](O)[C@H]2O)n1 [ribavirin], the “inhibition of Ad replication by species” value [3] is listed as “Only Species C was inhibited”.
